Data on 16 molecules can be found in patent US10800784B2, “Nitrogen-containing heterocyclic amide compound and pharmaceutical use thereof” (Japan Tobacco Inc., priority 2018, dated 2020).

The target of one assay is human PDHK2 (hPDHK2) (Homo sapiens (Human), UniProt Q15119). In words: Inhibitory action of PDHK2 activity in vitro (residual PDH activity after PDHK reaction). As to conditions: PDH/hPDHK2 complex solution, PDHK reaction at room temperature for 45 min, NADH absorbance at 340 nm; read-out: kPDK2 IC50. In kind it is biochemical. As to the method: (§1) The inhibitory action of PDHK activity was assessed indirectly by measuring the residual PDH activity after PDHK reaction in the presence of a test compound.
(Inhibitory Action of PDHK2 Activity)
In the case of human PDHK2 (hPDHK2, NCBI Reference Database Accession number NM_002611.4), modified hPDHK2 cDNA wherein FLAG-Tag sequence was added to the N terminus of hPDHK2 cDNA clone (pReceiver-M01/PDK2-GeneCopoeia) as the base was prepared by PCR and ligated to the NdeI/EcoRI site of pET-17b vector. The recombinant construct was transformed into Escherichia coli DH5a. The recombinant clones were identified, and plasmid DNA was isolated and subjected to the DNA sequence analysis. One clone which had the expected nucleic acid sequence was selected for expression work.
For expression of hPDHK2 activity, Escherichia coli strain BL21(DE3) cells were transformed with the pET17b vector containing modified hPDHK2 cDNA. The Escherichia coli were grown to an optical density 0.6 ([…]) at 30° C. Protein expression was induced by the addition of 500 μmol/L isopropyl-β-thiogalactopyranoside. The Escherichia coli were cultured at 20° C. for 17-18 hr and harvested by centrifugation. The harvested Escherichia coli was resuspended in a suspension buffer (20 mmol/L HEPES-NaOH, 500 mmol/L sodium chloride, 1% ethylene glycol, 0.1% pluronic F-68 (pH 8.0), cOmplete, EDTA-free (pH 8.0)), and disrupted by a microfluidizer. The precipitate was removed by centrifugation and the supernatant was added to DDDDK-tagged Protein PURIFICATION GEL. DDDDK-tagged Protein PURIFICATION GEL was washed with a washing buffer (20 mmol/L HEPES-NaOH, 500 mmol/L sodium chloride, 1% ethylene glycol, 0.1% pluronic F-68 (pH 8.0)) and the bound protein was eluted with elution buffer 1 (20 mmol/L HEPES-NaOH, 100 μg/mL peptide (amino acid sequence DYKDDDDK) (SEQ ID NO: 1), 500 mmol/L sodium chloride, 1% ethylene glycol, 0.1% pluronic F-68 (pH 8.0)). The eluted fractions containing FLAG-Tagged protein were pooled, concentrated by an ultrafiltration method, added to a gel filtration column (HiLoad 26/60 Superdex 200), and eluted with elution buffer 2 (20 mmol/L HEPES-NaOH, 150 mmol/L sodium chloride, 0.5 mmol/L ethylenediaminetetraacetic acid (EDTA), 1% ethylene glycol, 0.1% pluronic F-68 (pH 8.0)). The eluted fractions were pooled and preserved at −80° C.
0.025 U/mL PDH and 0.5 μg/mL hPDHK2 were mixed in an assay buffer (50 mmol/L 3-morpholinopropanesulfonic acid (pH 7.0), 20 mmol/L dipotassium hydrogen phosphate, 60 mmol/L potassium chloride, 2 mmol/L magnesium chloride, 0.4 mmol/L EDTA, 0.2% poloxamer, 2 mmol/L dithiothreitol), and the mixture was incubated at 4° C. overnight to obtain a PDH/hPDHK2 complex solution. In the assay buffer, 0.025 U/mL PDH was mixed and incubated at 4° C. overnight to prepare a PDH solution.
The test compounds were diluted with DMSO. To measure an inhibitory action of the test compound on the PDHK activity in the PDH/hPDHK2 complex solution, PDH/hPDHK2 complex solution (20 μL), test compound (1.5 μL) and 1.06 μmol/L ATP (diluted with assay buffer) (8.5 μL) were added to a 384 well microplate and PDHK reaction was performed at room temperature for 45 min (test compound well). DMSO (1.5 μL) was added to control wells instead of test compound. In addition, DMSO (1.5 μL) was added to blank wells instead of the test compound, and PDH solution was added instead of the PDH/hPDHK2 complex solution. To measure an inhibitory action of the test compound on the PDHK activity inherent in the PDH solution, a test compound was added and the PDH solution instead of the PDH/hPDHK2 complex solution was added to a blank+test compound well.
Then, 10 μL of substrates (5 mmol/L sodium pyruvate, 5 mmol/L Coenzyme A, 12 mmol/L NAD, 5 mmol/L thiamine pyrophosphate, diluted with assay buffer) were added. The mixture was incubated at room temperature for 90 min, and the residual PDH activity was measured. […]

In another assay the target is human PDHK1 (hPDHK1) (Homo sapiens (Human), UniProt Q15118). In words: Inhibitory action of PDHK1 activity in vitro (residual PDH activity after PDHK reaction). The class given is biochemical. As to conditions: for IC50: PDH/hPDHK1 complex solution, PDHK reaction at room temperature for 45 min, NADH absorbance at 340 nm, read-out: hPDK1 IC50; for inhibition at 0.003 µM: at 3 nmol/L, shown when IC50 value could not be calculated, read-out: hPDHK1 inhibitory rate at the lowest concentration of the test compound. Here is the method:
as §1
(Inhibitory Action of PDHK1 Activity)
In the case of human PDHK1 (hPDHK1, NCBI Reference Database Accession number NM_002610.3), a 1.3 kbp fragment encoding this protein was isolated from human liver cDNA by polymerase chain reaction (PCR). Modified hPDHK1 cDNA wherein FLAG-Tag sequence was added to the N terminus was prepared by PCR and ligated to the NdeI/EcoRI site of pET-17b vector (Merck MGaA, model number 69663-3). The recombinant construct was transformed into Escherichia coli DH5a (TOYOBO, model number DNA-903). The recombinant clones were identified, and plasmid DNA was isolated and subjected to the DNA sequence analysis. One clone which had the expected nucleic acid sequence was selected for expression work.
For expression of hPDHK1 activity, Escherichia coli strain BL21(DE3) cells (Merck KGaA, model number 69450-4) were transformed with the pET17b vector containing modified hPDHK1 cDNA. The Escherichia coli were grown to an optical density 0.6 ([…]) at 30° C. Protein expression was induced by the addition of 500 μmol/L isopropyl-β-thiogalactopyranoside. The Escherichia coli were cultured at 20° C. for 17-18 hr and harvested by centrifugation.
The harvested Escherichia coli was resuspended in a suspension buffer (20 mmol/L N-(2-hydroxyethyl)piperazine-N′-2-ethanesulfonic acid-sodium hydroxide (HEPES-NaOH), 500 mmol/L sodium chloride, 1% ethylene glycol, and 0.1% polyoxyethylene-polyoxypropylene block copolymer (Pluronic F-68), complete, EDTA-free (pH 8.0)) and disrupted by a microfluidizer M-110H (MIZUHO INDUSTRIAL CO., LTD.) or ultrasonication. The precipitate was removed by centrifugation and the supernatant was added to DDDDK-tagged Protein PURIFICATION GEL (MBL, model number 3329). DDDDK-tagged Protein PURIFICATION GEL was washed with a washing buffer (20 mmol/L HEPES-NaOH, 500 mmol/L sodium chloride, 1% ethylene glycol, 0.1% pluronic F-68 (pH 8.0)) and the bound protein was eluted with elution buffer 1 (20 mmol/L HEPES-NaOH, 100 μg/mL peptide (amino acid sequence DYKDDDDK) (SEQ ID NO: 1), 500 mmol/L sodium chloride, 1% ethylene glycol, 0.1% pluronic F-68 (pH 8.0)).
The eluted fractions containing FLAG-Tagged protein were pooled, concentrated by an ultrafiltration method, added to a gel filtration column (HiLoad 26/60 Superdex 200 (GE Healthcare, model number 17-1070-01)), and eluted with elution buffer 2 (20 mmol/L HEPES-NaOH, 150 mmol/L sodium chloride, 0.5 mmol/L ethylenediaminetetraacetic acid (EDTA), 1% ethylene glycol, 0.1% pluronic F-68 (pH 8.0)). The eluted fractions were pooled and preserved at −80° C.
0.025 U/mL PDH (porcine heart PDH complex, Sigma P7032) and 0.5 μg/mL hPDHK1 were mixed in an assay buffer (50 mmol/L 3-morpholinopropanesulfonic acid (pH 7.0), 20 mmol/L dipotassium hydrogen phosphate, 60 mmol/L potassium chloride, 2 mmol/L magnesium chloride, 0.4 mmol/L EDTA, 0.2% poloxamer, 2 mmol/L dithiothreitol), and the mixture was incubated at 4° C. overnight to obtain a PDH/hPDHK1 complex solution. In the assay buffer, 0.025 U/mL PDH was mixed and incubated at 4° C. overnight to prepare a PDH solution.
The test compounds were diluted with dimethyl sulfoxide (DMSO). To measure an inhibitory action of the test compound on the PDHK activity in the PDH/hPDHK1 complex solution, PDH/hPDHK1 complex solution (20 μL), test compound (1.5 μL) and 0.353 μmol/L ATP (diluted with assay buffer) (8.5 μL) were added to a 384 well microplate (Greiner Bio-One 781801) and PDHK reaction was performed at room temperature for 45 min (test compound well). DMSO (1.5 μL) was added to control wells instead of test compound. In addition, DMSO (1.5 μL) was added to blank wells instead of the test compound, and PDH solution was added instead of the PDH/hPDHK1 complex solution. […]

The term IC50 denotes the point on the concentration scale where inhibition reaches its midpoint.

Sequence of human PDHK1 (hPDHK1) (Q15118 29-436): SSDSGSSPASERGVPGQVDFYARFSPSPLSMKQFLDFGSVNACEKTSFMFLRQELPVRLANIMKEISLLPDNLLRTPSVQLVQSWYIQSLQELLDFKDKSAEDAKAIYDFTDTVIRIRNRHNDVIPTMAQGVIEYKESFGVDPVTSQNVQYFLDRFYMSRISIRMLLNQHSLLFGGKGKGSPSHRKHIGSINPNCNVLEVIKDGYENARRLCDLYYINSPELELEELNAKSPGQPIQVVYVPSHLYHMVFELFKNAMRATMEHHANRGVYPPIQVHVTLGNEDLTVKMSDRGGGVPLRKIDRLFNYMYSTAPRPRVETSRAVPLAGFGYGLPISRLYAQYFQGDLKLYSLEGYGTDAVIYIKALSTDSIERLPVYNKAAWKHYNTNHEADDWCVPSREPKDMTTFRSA

Consider `C[C@H]1CN(C(=O)c2ccc3c(c2)OC(F)(F)O3)Cc2cnc([C@@](C)(O)C(F)(F)F)n21` [Example 11, (2,2-difluorobenzo[d][1,3]dioxol-5-yl)((S)-5-methyl-3-((R)-1,1,1-trifluoro-2-hydroxypropan-2-yl)-5,6-dihydroimidazo[1,5-a]pyrazin-7(8H)-yl)methanone], for which the values for the IC50 at human PDHK2 (hPDHK2) and on human PDHK1 (hPDHK1) were 15 nM and 14 nM, respectively.

As to `C[C@H]1CN(C(=O)c2cc(-c3ccc(C#N)cc3)n(C3CC3)n2)Cc2cnc([C@@](C)(O)C(F)(F)F)n21` [Example 53, 4-(1-cyclopropyl-3-((S)-5-methyl-3-((R)-1,1,1-trifluoro-2-hydroxypropan-2-yl)-5,6,7,8-tetrahydroimidazo[1,5-a]pyrazine-7-carbonyl)-1H-pyrazol-5-yl)benzonitrile], the half-inhibitory concentration (IC50) on human PDHK2 (hPDHK2) was found to be 8 nM; at human PDHK1 (hPDHK1) it was 4 nM.

As to `C[C@H]1CN(C(=O)C2Cc3ccccc3C2)Cc2cnc([C@@](C)(O)C(F)(F)F)n21` [Example 3, (2,3-dihydro-1H-inden-2-yl)((S)-5-methyl-3-((R)-1,1,1-trifluoro-2-hydroxypropan-2-yl)-5,6-dihydroimidazo[1,5-a]pyrazin-7(8H)-yl)methanone], the half-inhibitory concentration (IC50) is 14 nM on human PDHK2 (hPDHK2) and 16 nM at human PDHK1 (hPDHK1).

Consider `C[C@H]1CN(C(=O)c2ccc(-c3ccc(F)cc3)cn2)Cc2cnc([C@@](C)(O)C(F)(F)F)n21` [Example 42], for which the results for the IC50 on human PDHK2 (hPDHK2) and on human PDHK1 (hPDHK1) were 5 nM and 4 nM, respectively.

As for `C[C@H]1CN(C(=O)c2ccc(F)c(C3CC3)n2)Cc2cnc([C@@](C)(O)C(F)(F)F)n21` [Example 23], the IC50 at human PDHK2 (hPDHK2) came out at 12 nM; on human PDHK1 (hPDHK1), 6 nM.

As to `C[C@H]1CN(C(=O)[C@H]2CCN(c3ccc(C#N)cn3)C2)Cc2cnc([C@@](C)(O)C(F)(F)F)n21` [Example 92], the half-maximal inhibitory concentration (IC50) came to 23 nM at human PDHK2 (hPDHK2) and 27 nM on human PDHK1 (hPDHK1).

With `C[C@H]1CN(C(=O)c2cc(C3CC3)nn2C)Cc2onc([C@@](C)(O)C(F)(F)F)c21` [Example 108], the half-inhibitory concentration (IC50) at human PDHK2 (hPDHK2) stood at 6 nM; at human PDHK1 (hPDHK1), 5 nM.

Consider `C[C@H]1CN(C(=O)c2ccc(C#N)c(C3CC3)c2)Cc2cnc([C@@](C)(O)C(F)(F)F)n21` [Example 28], for which the 50% inhibitory concentration (IC50) at human PDHK2 (hPDHK2) stood at 10 nM; on human PDHK1 (hPDHK1), 12 nM.

As for `C[C@H]1CN(C(=O)c2cccc(-c3ccc(F)cc3)n2)Cc2cnc([C@@](C)(O)C(F)(F)F)n21` [Example 38], at human PDHK2 (hPDHK2), the 50% inhibitory concentration (IC50) amounted to 4 nM. Further, at human PDHK1 (hPDHK1), the half-maximal inhibitory concentration (IC50) was below 3 nM and the inhibition at 0.003 µM was 73%.

`C[C@H]1CN(C(=O)c2cccc(-c3ccc(C#N)cc3)n2)Cc2cnc([C@@](C)(O)C(F)(F)F)n21` [Example 43]: at human PDHK2 (hPDHK2), the IC50 was 5 nM. Moreover, at human PDHK1 (hPDHK1), the concentration for half-maximal inhibition (IC50) was below 3 nM and the inhibition at 0.003 µM was 52%.

Take `C[C@H]1CN(C(=O)c2c3ccc(C#N)cc3nn2C)Cc2cnc([C@@](C)(O)C(F)(F)F)n21` [Example 4, 2-methyl-3-((S)-5-methyl-3-((R)-1,1,1-trifluoro-2-hydroxypropan-2-yl)-5,6,7,8-tetrahydroimidazo[1,5-a]pyrazine-7-carbonyl)-2H-indazole-6-carbonitrile]: the IC50 on human PDHK2 (hPDHK2) was determined as 5 nM; at human PDHK1 (hPDHK1), 4 nM.

Consider `C[C@H]1CN(C(=O)c2cc(-c3ccc(F)cn3)nn2C)Cc2cnc([C@@](C)(O)C(F)(F)F)n21` [Example 81], for which the IC50 at human PDHK2 (hPDHK2) stood at 7 nM; on human PDHK1 (hPDHK1), 5 nM.

In the case of `C[C@H]1CN(C(=O)c2cc(C3CC3)nc(C(F)(F)F)c2)Cc2cnc([C@@](C)(O)C(F)(F)F)n21` [Example 98], the IC50 on human PDHK2 (hPDHK2) and on human PDHK1 (hPDHK1) was 6 nM in each case.

For the molecule `C[C@H]1CN(C(=O)c2ccc(C#N)c(-c3ccc(F)cn3)c2)Cc2cnc([C@@](C)(O)C(F)(F)F)n21` [Example 77], the results for the IC50 on human PDHK2 (hPDHK2) and on human PDHK1 (hPDHK1) were 9 nM and 6 nM, respectively.

For the molecule `C[C@H]1CN(C(=O)c2c(Cl)c(C3CC3)nn2C)Cc2cnc([C@@](C)(O)C(F)(F)F)n21` [Example 22], the IC50 at human PDHK2 (hPDHK2) worked out at 8 nM; on human PDHK1 (hPDHK1), 6 nM.

Consider `C[C@H]1CN(C(=O)c2cc(-c3ccc(C#N)cc3F)nn2C)Cc2cnc([C@@](C)(O)C(F)(F)F)n21` [Example 50], for which the IC50 at human PDHK2 (hPDHK2) is 5 nM; on human PDHK1 (hPDHK1), 4 nM.
